From ChEMBL document CHEMBL4359919, “Discovery and synthesis of 3- and 21-substituted fusidic acid derivatives as reversal agents of P-glycoprotein-mediated multidrug resistance” (Eur J Med Chem, 2019)
Activity calls are given as the source filed them. No cut-off for these calls is given here.

Tests used:
[1] = Cytotoxicity against human KBV cells assessed as cell survival at 5 uM after 72 hrs by MTT assay relative to control; assay type: cell-based; conditions: read-out: Survival
[2] = target: T1, ATP-dependent translocase ABCB1 (Homo sapiens, UniProt P08183); assay: Reversal of P-gp-mediated multidrug resistance in human KBV cells assessed as potentiation of paclitaxel-induced cytotoxicity by measuring cell survival at 5 uM after 72 hrs by MTT assay (reference value: 100.58 +/- 7.78%); assay type: cell-based
[3] = target: T1, ATP-dependent translocase ABCB1; assay: Stimulation of P-gp ATPase activity (unknown origin) assessed as increase in ATP consumption at 0.5 to 1 mM preincubated for 5 mins followed by Mg-ATP addition by P-gp-Glo luminescence assay
[4] = target: T1, ATP-dependent translocase ABCB1; assay: Inhibition of P-gp-mediated Rh-123 efflux in human KBV cells assessed as Rh-123 accumulation at 10 uM preincubated for 2 hrs followed by Rh-123 addition measured after 30 mins by flow cytometry; assay type: cell-based; conditions: 0.5 h
Homo sapiens = species: Homo sapiens; assay: Downregulation of P-gp protein expression in human KBV cells at 5 to 10 uM after 24 hrs by western blot analysis; assay type: functional, cell-based
[5] = target: T1, ATP-dependent translocase ABCB1; assay: Reversal of P-gp-mediated multidrug resistance in human KBV cells assessed as potentiation of paclitaxel-induced apoptosis after 24 hrs by RNase/propidium iodide staining based flow cytometry; assay type: cell-based
[6] = target: T1, ATP-dependent translocase ABCB1; assay: Reversal of P-gp-mediated multidrug resistance in human KBV cells assessed as potentiation of paclitaxel-induced cell cycle arrest by measuring accumulation at G2/M phase at 5 to 10 uM after 24 hrs by RNase/propidium iodide staining based flow cytometry
[7] = target: T1, ATP-dependent translocase ABCB1; assay: Inhibition of P-gp-mediated Flutax1 efflux in human KBV cells assessed as Flutax1 accumulation at 2 to 10 uM preincubated for 3 hrs followed by Flutax1 addition measured after 1 hr by flow cytometry; assay type: cell-based

T1 sequence (P08183 whole entry): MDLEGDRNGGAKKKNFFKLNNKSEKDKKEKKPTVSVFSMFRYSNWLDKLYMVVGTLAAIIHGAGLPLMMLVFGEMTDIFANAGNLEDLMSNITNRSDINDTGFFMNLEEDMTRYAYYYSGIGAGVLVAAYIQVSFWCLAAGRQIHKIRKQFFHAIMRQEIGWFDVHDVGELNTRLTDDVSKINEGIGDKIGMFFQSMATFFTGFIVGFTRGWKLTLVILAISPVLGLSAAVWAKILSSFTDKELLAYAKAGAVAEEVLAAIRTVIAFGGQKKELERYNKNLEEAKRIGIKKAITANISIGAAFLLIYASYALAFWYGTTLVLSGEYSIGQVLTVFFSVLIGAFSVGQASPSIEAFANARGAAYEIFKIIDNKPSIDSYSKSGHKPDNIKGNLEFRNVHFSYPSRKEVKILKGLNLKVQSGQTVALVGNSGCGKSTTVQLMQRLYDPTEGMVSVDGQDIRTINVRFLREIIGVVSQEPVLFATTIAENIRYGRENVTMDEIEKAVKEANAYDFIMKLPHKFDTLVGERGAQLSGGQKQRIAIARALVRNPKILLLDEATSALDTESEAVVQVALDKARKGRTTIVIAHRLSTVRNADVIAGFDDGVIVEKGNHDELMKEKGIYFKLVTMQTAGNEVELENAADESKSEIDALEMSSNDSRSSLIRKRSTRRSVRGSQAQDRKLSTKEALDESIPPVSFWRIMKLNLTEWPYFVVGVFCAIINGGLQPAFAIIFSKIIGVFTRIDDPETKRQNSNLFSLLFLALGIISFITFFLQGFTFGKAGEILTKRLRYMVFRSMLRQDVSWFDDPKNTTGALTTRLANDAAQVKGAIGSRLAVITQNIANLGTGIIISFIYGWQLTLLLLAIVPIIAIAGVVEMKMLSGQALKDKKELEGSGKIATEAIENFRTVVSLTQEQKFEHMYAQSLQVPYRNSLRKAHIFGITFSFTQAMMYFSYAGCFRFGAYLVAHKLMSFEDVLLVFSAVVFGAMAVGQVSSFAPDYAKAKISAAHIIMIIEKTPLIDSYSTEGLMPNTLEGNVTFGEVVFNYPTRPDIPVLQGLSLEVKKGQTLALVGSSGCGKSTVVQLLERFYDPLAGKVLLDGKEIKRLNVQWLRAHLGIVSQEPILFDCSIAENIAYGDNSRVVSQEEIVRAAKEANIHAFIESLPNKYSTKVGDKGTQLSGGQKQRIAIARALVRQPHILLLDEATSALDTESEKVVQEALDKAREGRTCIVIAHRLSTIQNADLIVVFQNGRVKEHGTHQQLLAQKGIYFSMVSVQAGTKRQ

Compound	viability at 72 h, 5 µM [1] [%]	Survival [2] [%]	also measured
CC(=O)O[C@H]1C[C@@]2(C)[C@@H](C[C@@H](O)[C@H]3[C@@]4(C)CC[C@@H](OC(=O)c5ccccc5C(=O)N5CCOCC5)[C@@H](C)[C@@H]4CC[C@@]32C)/C1=C(\CCC=C(C)C)C(=O)OCc1ccccc1	76	37.96	
CC(=O)O[C@H]1C[C@@]2(C)[C@@H](CC(=O)[C@H]3[C@@]4(C)CCC(=O)[C@@H](C)[C@@H]4CC[C@@]32C)/C1=C(\CCC=C(C)C)C(=O)OCc1ccccc1	96.6	27.6	
CC(=O)O[C@H]1C[C@@]2(C)[C@@H](C[C@@H](O)[C@H]3[C@@]4(C)CC[C@@H](OC(=O)c5ccccc5C(=O)Oc5ccc(CCO[N+](=O)[O-])cc5)[C@@H](C)[C@@H]4CC[C@@]32C)/C1=C(\CCC=C(C)C)C(=O)OCc1ccccc1	87.5	75.04	
CC(=O)O[C@H]1C[C@@]2(C)[C@@H](C[C@@H](O)[C@H]3[C@@]4(C)CC[C@@H](OC(=O)c5ccccc5C(=O)Nc5cccc(N)c5)[C@@H](C)[C@@H]4CC[C@@]32C)/C1=C(\CCC=C(C)C)C(=O)OCc1ccccc1	95.8	29.28	
CC(=O)O[C@H]1C[C@@]2(C)[C@@H](CC(=O)[C@H]3[C@@]4(C)CC[C@@H](OC(=O)CCCCCO[N+](=O)[O-])[C@@H](C)[C@@H]4CC[C@@]32C)/C1=C(\CCC=C(C)C)C(=O)OCc1ccccc1	115	62.17	
CC(=O)O[C@H]1C[C@@]2(C)[C@@H](C[C@@H](O)[C@H]3[C@@]4(C)CC[C@@H](OC(=O)CCC(=O)N5CCN(C)CC5)[C@@H](C)[C@@H]4CC[C@@]32C)/C1=C(\CCC=C(C)C)C(=O)OCc1ccccc1	30.1	33.67	
CC(=O)O[C@H]1C[C@@]2(C)[C@@H](C[C@@H](O)[C@H]3[C@@]4(C)CC[C@@H](OC(=O)CCC(=O)N5CCOCC5)[C@@H](C)[C@@H]4CC[C@@]32C)/C1=C(\CCC=C(C)C)C(=O)OCc1ccccc1	20.5	31.93	
CC(=O)O[C@H]1C[C@@]2(C)[C@@H](C[C@@H](O)[C@H]3[C@@]4(C)CC[C@@H](OC(=O)c5ccccc5C(=O)OCCc5ccc(OCCO[N+](=O)[O-])cc5)[C@@H](C)[C@@H]4CC[C@@]32C)/C1=C(\CCC=C(C)C)C(=O)OCc1ccccc1	85.9	90.45	
CC(=O)O[C@H]1C[C@@]2(C)[C@@H](C[C@@H](O)[C@H]3[C@@]4(C)CC[C@@H](O)[C@@H](C)[C@@H]4CC[C@@]32C)/C1=C(\CCC=C(C)C)C(=O)OCc1ccccc1	92	18.6	Activity [3]: Active; inhibition (INH) [4]: Active; Activity (Homo sapiens): inactive; Activity [5]: Active; Activity [6]: Active; inhibition (INH) [7]: Active
CC(=O)O[C@H]1C[C@@]2(C)[C@@H](C[C@@H](O)[C@H]3[C@@]4(C)CC[C@@H](OC(=O)CCC(=O)Nc5ccc(N)cc5)[C@@H](C)[C@@H]4CC[C@@]32C)/C1=C(\CCC=C(C)C)C(=O)OCc1ccccc1	136	22.26	
CC(=O)O[C@H]1C[C@@]2(C)[C@@H](C[C@@H](O)[C@H]3[C@@]4(C)CC[C@@H](OC(=O)c5ccccc5C(=O)N5CCCCC5)[C@@H](C)[C@@H]4CC[C@@]32C)/C1=C(\CCC=C(C)C)C(=O)OCc1ccccc1	110	36.37	
CCN1CCN(C(=O)CCC(=O)O[C@@H]2CC[C@@]3(C)[C@@H](CC[C@@]4(C)[C@H]3[C@H](O)C[C@H]3/C(=C(\CCC=C(C)C)C(=O)OCc5ccccc5)[C@@H](OC(C)=O)C[C@@]34C)[C@@H]2C)CC1	99.8	34.43	
CC(=O)O[C@H]1C[C@@]2(C)[C@@H](C[C@@H](O)[C@H]3[C@@]4(C)CC[C@@H](OC(=O)c5ccccc5C(=O)Nc5ccc(N)cc5)[C@@H](C)[C@@H]4CC[C@@]32C)/C1=C(\CCC=C(C)C)C(=O)OCc1ccccc1	118	23.58	
CC(=O)O[C@H]1C[C@@]2(C)[C@@H](C[C@@H](O)[C@H]3[C@@]4(C)CC[C@@H](OC(=O)CCC(=O)Nc5cccc(N)c5)[C@@H](C)[C@@H]4CC[C@@]32C)/C1=C(\CCC=C(C)C)C(=O)OCc1ccccc1	135	24.8	
CC(=O)O[C@H]1C[C@@]2(C)[C@@H](C[C@@H](O)[C@H]3[C@@]4(C)CC[C@@H](O)[C@@H](C)[C@@H]4CC[C@@]32C)/C1=C(\CCC=C(C)C)C(=O)O [FUSIDIC ACID]	84.7	87.77	
CCN1CCN(C(=O)c2ccccc2C(=O)O[C@@H]2CC[C@@]3(C)[C@@H](CC[C@@]4(C)[C@H]3[C@H](O)C[C@H]3/C(=C(\CCC=C(C)C)C(=O)OCc5ccccc5)[C@@H](OC(C)=O)C[C@@]34C)[C@@H]2C)CC1	27.3	20.76	
COc1ccc(CCN(C)CCCC(C#N)(c2ccc(OC)c(OC)c2)C(C)C)cc1OC (stereo not given) [VERAPAMIL]		23.05	
CC(=O)O[C@H]1C[C@@]2(C)[C@@H](C[C@@H](O)[C@H]3[C@@]4(C)CC[C@@H](OC(=O)CCCCO[N+](=O)[O-])[C@@H](C)[C@@H]4CC[C@@]32C)/C1=C(\CCC=C(C)C)C(=O)OCc1ccccc1	107	96.92	
CC(=O)O[C@H]1C[C@@]2(C)[C@@H](C[C@@H](O)[C@H]3[C@@]4(C)CC[C@@H](OC(=O)CCCCCO[N+](=O)[O-])[C@@H](C)[C@@H]4CC[C@@]32C)/C1=C(\CCC=C(C)C)C(=O)OCc1ccccc1	94.1	20.79	
CC(=O)O[C@H]1C[C@@]2(C)[C@@H](C[C@@H](O)[C@H]3[C@@]4(C)CC[C@@H](OC(=O)CCC(=O)OCCc5ccc(OCCO[N+](=O)[O-])cc5)[C@@H](C)[C@@H]4CC[C@@]32C)/C1=C(\CCC=C(C)C)C(=O)OCc1ccccc1	110	101.31	
CC(=O)O[C@H]1C[C@@]2(C)[C@@H](C[C@@H](O)[C@H]3[C@@]4(C)CC[C@@H](OC(=O)c5ccccc5C(=O)N5CCN(C)CC5)[C@@H](C)[C@@H]4CC[C@@]32C)/C1=C(\CCC=C(C)C)C(=O)OCc1ccccc1	100	69.5	
CC(=O)O[C@H]1C[C@@]2(C)[C@@H](C[C@@H](O)[C@H]3[C@@]4(C)CC[C@@H](O)[C@@H](C)[C@@H]4CC[C@@]32C)/C1=C(\CCC=C(C)C)C(=O)Oc1ccc(CCO[N+](=O)[O-])cc1	83.7	45.82	
CC(=O)O[C@H]1C[C@@]2(C)[C@@H](C[C@@H](O)[C@H]3[C@@]4(C)CC[C@@H](OC(=O)CCC(=O)Oc5ccc(CCO[N+](=O)[O-])cc5)[C@@H](C)[C@@H]4CC[C@@]32C)/C1=C(\CCC=C(C)C)C(=O)OCc1ccccc1	114	99.95	
CC(=O)O[C@H]1C[C@@]2(C)[C@@H](C[C@@H](O)[C@H]3[C@@]4(C)CC[C@@H](OC(=O)CCC(=O)N5CCCCC5)[C@@H](C)[C@@H]4CC[C@@]32C)/C1=C(\CCC=C(C)C)C(=O)OCc1ccccc1	122	35.31	
CC(=O)O[C@H]1C[C@@]2(C)[C@@H](CC(=O)[C@H]3[C@@]4(C)CC[C@@H](OC(=O)CCCCO[N+](=O)[O-])[C@@H](C)[C@@H]4CC[C@@]32C)/C1=C(\CCC=C(C)C)C(=O)OCc1ccccc1	112	20.75	
